Assay results reported in patent US8426420B2, “Heterocyclic pyrazole-carboxamidesas P2Y12 antagonists” (Sanofi, priority 2007, dated 2013).

Assays:
[1] = test system: human platelet rich plasma; experiment: Inhibition of human platelet aggregation, 96-well assay; type: cell-based; details: Homo sapiens, Platelet, 20 min
Summary of the method: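 ADP-induced aggregation read as 650 nm absorbance every minute for 20 min at 37 °C, with shaking between reads. PRP (~3×E8 platelets/ml, diluted with PPP, ACD-A blood from healthy volunteers) was exposed to compound for 5 min before adding a 40 μM ADP stock (15 μl into 150 μl).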

[2] = test system: human platelet rich plasma; experiment: Inhibition of human platelet aggregation, "Born"-method using single cuvettes; type: cell-based; details: 0.1 h, ADP-induced aggregation, 6 minutes
Method: Inhibition of Human Platelet Aggregation
Alternatively to a binding assay which measures a compound's ability to bind to the P2Y12 receptor, the effect on cellular function was also determined. This ability of the compound was evaluated in two platelet aggregation assays: in 96-well plates and with the “Born”-method using single cuvettes.
Whole blood was collected from healthy volunteers using 20 ml syringes containing 2 ml of buffered Citrate. The anticoagulated whole blood was transferred into 15 ml polypropylene conical tubes (10 ml per tube). The tubes were centrifuged for 15 minutes at 340×g at RT without using the centrifuge brake. This procedure leads to a pellet of cellular components and a supernatant of platelet rich plasma (PRP). The PRP layer was collected from each tube and pooled for each donor. To avoid carry over of cellular components following centrifugation, approximately 5 ml of PRP was left in the tube. The platelet concentration was determined using a Coulter Counter.
The 15 ml tubes containing the pellet of cellular components were centrifuged again for 10 minutes at 1940×g. This pelleted out most particulate blood constituents remaining, leaving a layer of Platelet Poor Plasma (PPP). The PPP was collected for each donor. The PRP layer, previously set aside, was diluted with PPP to a final concentration of approximately 3×E8 platelets/ml with the PPP.
The human platelet aggregation assay is performed in single use cuvettes using the platelet aggregation profiler (PAP-4 or -8, Bio/Data corporation).
In the assay cuvette 4 μl of test compound at 100× final concentration in DMSO is mixed with 392 μl fresh PRP and incubated for 2 minutes at 37° C. with 1.200 rpm stirring. Following that incubation period, 4 μl of 250 μM ADP is added to the reaction mix. This addition of ADP is sufficient to induce aggregation in the absence of an inhibitor. After that aggregation is measured over 6 minutes at 37° C. with 1.200 rpm stirring. Results of the assay are expressed as % inhibition, and are calculated using maximum aggregation (Tmax) or area under curve (AUC) of the absorbance over 6 minutes.
The IC50 data of the above described platelet aggregation assay using human platelet rich plasma for exemplary compounds of the present invention are shown in table 3.

[3] = molecular target: human P2Y12 receptor (Homo sapiens, UniProt Q9H244); experiment: Human P2Y12 recombinant cell membrane binding assay with 33P 2MeS-ADP; details: competition against 33P 2MeS-ADP, membranes of CHO cells with recombinant human P2Y12 receptor
human P2Y12 receptor, sequence (Q9H244 whole entry): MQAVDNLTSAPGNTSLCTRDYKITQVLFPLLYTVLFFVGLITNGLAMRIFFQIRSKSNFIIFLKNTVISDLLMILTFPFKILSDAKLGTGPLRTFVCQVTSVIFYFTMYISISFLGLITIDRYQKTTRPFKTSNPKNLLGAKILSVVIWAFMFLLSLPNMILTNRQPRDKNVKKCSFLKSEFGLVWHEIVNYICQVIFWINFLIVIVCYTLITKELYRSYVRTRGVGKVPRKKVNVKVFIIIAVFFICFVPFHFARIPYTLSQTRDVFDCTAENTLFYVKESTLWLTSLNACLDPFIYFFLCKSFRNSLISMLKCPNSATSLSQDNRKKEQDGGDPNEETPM
Summary of the method: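 Competition binding against radiolabeled 2MeS-ADP (1.61 nM as added) on membranes from recombinant human P2Y12 CHO cells, 20 min RT after 15 min compound preincubation, pH 7.4. Filtration then scintillation counting; compounds tested in triplicate from 10 μM final, five-fold dilutions, curve fit with plate-defined min/max.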

IC50 [1] [nM]	IC50 [2] [nM]	IC50 [3] [nM]	Compound
10	210	270	CCOC(=O)N1CCN(C(=O)[C@H](CCC(=O)O)NC(=O)c2cc(OCC(=O)N3CCC[C@H]3C(=O)NC3CC3)n(-c3ccccc3)n2)CC1 [Example 1, 4-[(S)-4-Carboxy-2-({5-[2-((S)-2-cyclopropylcarbamoyl-pyrrolidin-1-yl)-2-oxo-ethoxy]-1-phenyl-1H-pyrazole-3-carbonyl}-amino)-butyryl]-piperazine-1-carboxylic acid ethyl ester]
	11	120	CCOC(=O)N1CCN(C(=O)[C@H](CCC(=O)O)NC(=O)c2cc(OCC(=O)N3CCC[C@H]3C(=O)NCC(F)(F)F)n(-c3ccccc3)n2)CC1 [Example 2, 4-{(S)-4-Carboxy-2-[(5-{2-oxo-2-[(S)-2-(2,2,2-trifluoroethyl-carbamoyl)pyrrolidin-1-yl]-ethoxy}-1-phenyl-1H-pyrazole-3-carbonyl)-amino]-butyryl}-piperazine-1-carboxylic acid ethyl ester]
60	91	172	CCCNC(=O)[C@@H]1CCCN1C(=O)COc1cc(C(=O)N[C@@H](CCC(=O)O)C(=O)N2CCN(C(=O)OCC)CC2)nn1-c1ccccc1 [Example 9, 4-{(S)-4-Carboxy-2-[(5-{2-[(S)-2-propylcarbamoyl-pyrrolidin-1-yl]-2-oxo-ethoxy}-1-phenyl-1H-pyrazole-3-carbonyl)-amino]-butyryl}-piperazine-1-carboxylic acid ethyl ester]
	340	146	CCOC(=O)N1CCN(C(=O)[C@H](CCC(=O)O)NC(=O)c2cc(OCC(=O)N3CCC[C@H]3C(=O)NC(C)C)n(-c3ccccc3)n2)CC1 [Example 10, 4-{(S)-4-Carboxy-2-[(5-{2-[(S)-2-isopropylcarbamoyl-pyrrolidin-1-yl]-2-oxo-ethoxy}-1-phenyl-1H-pyrazole-3-carbonyl)-amino]-butyryl}-piperazine-1-carboxylic acid ethyl ester]
	20	41	CCOC(=O)N1CCN(C(=O)[C@H](CCC(=O)O)NC(=O)c2cc(O[C@H](C)C(=O)N3CCC[C@H]3C(=O)NCC3CC3)n(-c3ccccc3)n2)CC1 [Example 63, 4-[(S)-4-Carboxy-2-({5-[(R)-2-((S)-2-cyclopropylmethylcarbamoyl-pyrrolidin-1-yl)-1-methyl-2-oxo-ethoxy]-1-phenyl-1H-pyrazole-3-carbonyl}-amino)-butyryl]-piperazine-1-carboxylic acid ethyl ester]
	120	55	CCOC(=O)N1CCN(C(=O)[C@H](CCC(=O)O)NC(=O)c2cc(O[C@H](C)C(=O)N3CCC[C@H]3C(=O)NCC(F)(F)F)n(-c3ccccc3)n2)CC1 [Example 65, 4-[(S)-4-Carboxy-2-({5-[(R)-2-((S)-2-(2,2,2-trifluoroethylcarbamoyl)-pyrrolidin-1-yl)-1-methyl-2-oxo-ethoxy]-1-phenyl-1H-pyrazole-3-carbonyl}-amino)-butyryl]-piperazine-1-carboxylic acid ethyl ester]
110	950		CCOC(=O)N1CCN(C(=O)[C@H](CCC(=O)O)NC(=O)c2cc(O[C@@H](C)C(=O)N3CCC[C@H]3C(=O)NC3CCC3)n(-c3ccccc3)n2)CC1 [Example 67, 4-[(S)-4-Carboxy-2-({5-[(S)-2-((S)-2-cyclobutylcarbamoyl-pyrrolidin-1-yl)-1-methyl-2-oxo-ethoxy]-1-phenyl-1H-pyrazole-3-carbonyl}-amino)-butyryl]-piperazine-1-carboxylic acid ethyl ester]
20	13		CCCCOC(=O)N1CCN(C(=O)[C@H](CCC(=O)O)NC(=O)c2cc(OCC(=O)N3CCC[C@H]3C(=O)NC3CCC3)n(-c3ccccc3)n2)CC1 [Example 119, 4-[(S)-4-Carboxy-2-({5-[2-((S)-2-cyclobutylcarbamoyl-pyrrolidin-1-yl)-2-oxo-ethoxy]-1-phenyl-1H-pyrazole-3-carbonyl}-amino)-butyryl]-piperazine-1-carboxylic acid butyl ester]
	20	71	CCCCOC(=O)N1CCN(C(=O)[C@H](CCC(=O)O)NC(=O)c2cc(OCC(=O)N3CCC[C@H]3C(=O)N(C)C3CCC3)n(-c3ccccc3)n2)CC1 [Example 124, 4-{(S)-4-Carboxy-2-[(5-{2-[(S)-2-(cyclobutyl-methyl-carbamoyl)-pyrrolidin-1-yl]-2-oxo-ethoxy}-1-phenyl-1H-pyrazole-3-carbonyl)-amino]-butyryl}-piperazine-1-carboxylic acid butyl ester]
50	79		CCCCOC(=O)N1CCN(C(=O)[C@H](CCc2nn[nH]n2)NC(=O)c2cc(OCC(=O)N3CCC[C@H]3C(=O)NC3CCC3)n(-c3ccccc3)n2)CC1 [Example 126, 4-[(S)-2-({5-[2-((S)-2-Cyclobutylcarbamoyl-pyrrolidin-1-yl)-2-oxo-ethoxy]-1-phenyl-1H-pyrazole-3-carbonyl}-amino)-4-(2H-tetrazol-5-yl)-butyryl]-piperazine-1-carboxylic acid butyl ester]
860	940		CCOC(=O)N1CCN(C(=O)[C@H](CCC(=O)O)NC(=O)c2cc(OCC(=O)N3CCC[C@H]3c3cc(C)no3)n(-c3ccccc3)n2)CC1 [Example 173, 4-{(S)-4-Carboxy-2-[(5-{2-[(S)-2-(3-methyl-isoxazol-5-yl)-pyrrolidin-1-yl]-2-oxo-ethoxy}-1-phenyl-1H-pyrazole-3-carbonyl)-amino]-butyryl}-piperazine-1-carboxylic acid ethyl ester]
760	2220		CCOC(=O)N1CCN(C(=O)[C@H](CCC(=O)O)NC(=O)c2cc(OCC(=O)N3CCC[C@H]3c3nc(C)no3)n(-c3ccccc3)n2)CC1 [Example 174, 4-{(S)-4-Carboxy-2-[(5-{2-[(S)-2-(3-methyl-[1,2,4]oxadiazol-5-yl)-pyrrolidin-1-yl]-2-oxo-ethoxy}-1-phenyl-1H-pyrazole-3-carbonyl)-amino]-butyryl}-piperazine-1-carboxylic acid ethyl ester]
	70	17	CCCCOC(=O)N1CCN(C(=O)[C@H](CCCO)NC(=O)c2cc(OCC(=O)N3CCC[C@H]3C(=O)NC3CCC3)n(-c3ccccc3)n2)CC1 [Example 178, 4-[(S)-2-({5-[2-((S)-2-Cyclobutylcarbamoyl-pyrrolidin-1-yl)-2-oxo-ethoxy]-1-phenyl-1H-pyrazole-3-carbonyl}-amino)-5-hydroxy-pentanoyl]-piperazine-1-carboxylic acid butyl ester]
90	100		CCOC(=O)N1CCN(C(=O)CNC(=O)c2cc(OCC(=O)N3CCC[C@H]3C(=O)NC3CCC3)n(-c3ccccc3)n2)CC1 [Example 181, 4-[2-({5-[2-((S)-2-Cyclobutylcarbamoyl-pyrrolidin-1-yl)-2-oxo-ethoxy]-1-phenyl-1H-pyrazole-3-carbonyl}-amino)-acetyl]-piperazine-1-carboxylic acid ethyl ester]
130	190		O=C(NCC(=O)N1CCN(C(=O)OCCC(F)(F)F)CC1)c1cc(OCC(=O)N2CCC[C@H]2C(=O)NC2CCC2)n(-c2ccccc2)n1 [Example 256, 4-[2-({5-[2-((S)-2-Cyclobutylcarbamoyl-pyrrolidin-1-yl)-2-oxo-ethoxy]-1-phenyl-1H-pyrazole-3-carbonyl}-amino)-acetyl]-piperazine-1-carboxylic acid 3,3,3-trifluoro-propyl ester]
30	40		CCCCOC(=O)N1CCN(C(=O)[C@H](CF)NC(=O)c2cc(OCC(=O)N3CCC[C@H]3C(=O)NC3CCC3)n(-c3ccccc3)n2)CC1 [Example 262, 4-[(R)-2-({5-[2-((S)-2-Cyclobutylcarbamoyl-pyrrolidin-1-yl)-2-oxo-ethoxy]-1-phenyl-1H-pyrazole-3-carbonyl}-amino)-3-fluoro-propionyl]-piperazine-1-carboxylic acid butyl ester]
	50	3	CCCCOC(=O)N1CCN(C(=O)CNC(=O)c2cc(O[C@H](C)C(=O)N3CCC[C@H]3C(=O)NC3CCC3)n(-c3ccccc3)n2)CC1 [Example 269, 4-[2-({5-[(R)-2-((S)-2-Cyclobutylcarbamoyl-pyrrolidin-1-yl)-1-methyl-2-oxo-ethoxy]-1-phenyl-1H-pyrazole-3-carbonyl}-amino)-acetyl]-piperazine-1-carboxylic acid butyl ester]
